Experimental data reported in patent US20220193092A1, “PROGESTOGEN FOR USE IN THE TREATMENT OF CYTOKINE RELEASE SYNDROME” (Shenzhen Evergreen Therapeutics Co,. Ltd., priority 2020, published 2022).

What was measured:
Type in all cases: cell-based
[1] = tested on: human peripheral blood mononuclear cells (PBMCs); assay: T-cell inflammation inhibition assay using anti-CD3 (OKT3): cytokine release from PBMCs; details: PBMCs stimulated by OKT3
Description: (§1) The human peripheral blood mononuclear cells (PBMCs) used in the following experiments are derived from Eurofins Discovery (St Charles, Mo., USA) and are a mixture of PBMCs from three healthy human subjects (Lot#98, 99, 101).
(§2) 2) T-Cell Inflammation Inhibition Assay Protocol Using Anti-CD3 (OKT3) or PHA
(§3) Cryopreserved PBMCs are drip thawed, pooled and diluted to an appropriate density, and inoculated into a 96-well polypropylene plate (2×10^5 cells per well) with 150 μL per well of culture medium (RPMI 1640, 10% heat inactivated fetal bovine serum, 1% penicillin/streptomycin, 2 mM L-glutamine). The cells are incubated under 5% CO2 at 37° C. for 1 hour before adding HPC. HPC is dissolved in 50% ethanol & PBS, and is further diluted to 20× with cell culture medium. Then HPC is added to the PBMCs in volumes of 10 μL (1×) in triplicate and incubated under 5% CO2 at 37° C. for 16 hours.
(§4) After incubation for 16 hours, 40 μL of anti-CD3 (OKT3, 3 μg/well or 15 μg/mL) or PHA (10 μg/mL) is added to the wells according to the plate layout. The cells are incubated under 5% CO2 at 37° C. for 48 hours. Thereafter, the plates are centrifuged at 200×g for 10 minutes. Cell culture supernatants are collected and stored at −80° C. until use in analysis.
(§5) The cytokine level of each sample is determined using Luminex methodology and carried out in accordance with the manufacturer's protocol. Cytokine levels in the cell culture supernatants are determined in accordance with the manufacturer's protocol using Human Cytokine/Chemokine Magnetic bead panel from Millipore Sigma (catalogue No. HCYTOMAG-60K) with standards range 3.2, 16, 80, 400, 2000, […].
(§6) The following cytokines are measured: IFN-γ, IL-2, IL-6, IL-10 and TNFα.

[2] = tested on: human peripheral blood mononuclear cells (PBMCs); assay: T-cell inflammation inhibition assay using PHA: cytokine release from PBMCs
Description: as §1, §2, §3, §4, §5, §6

[3] = tested on: human peripheral blood mononuclear cells (PBMCs); assay: T-cell inflammation inhibition assay using anti-CD28 super agonist (ANC28.1/5D10): cytokine release from PBMCs; details: PBMCs stimulated by anti-CD28 antibody
Description: as §1
1) T-cell Inflammation Inhibition Assay Protocol Using Anti-CD28 Super Agonists First Day
High-binding enzyme-labeled plates are coated with anti-CD28 super agonists (clone ANC28.1/5D10, 2 μg/well) dissolved in PBS 1× and incubated overnight in a biosafety cabinet with lid open and immobilized by air-dry. Cryopreserved PBMCs are drip thawed, pooled and diluted to an appropriate density, and then are inoculated into a U bottom 96-well polypropylene plate (1.2×10^5 cells per well) with 228 μL per well of culture medium (RPMI 1640, 10% heat inactivated fetal bovine serum, 1% penicillin/streptomycin, 2 mM L-glutamine). The cells are incubated under 5% CO2 at 37° C. for 1 hour before adding HPC. HPC is dissolved in 50% ethanol & PBS, and is further diluted to 20× with cell culture medium. Then HPC is added to the PBMCs in volumes of 12 μL (1×) in triplicate and incubated under 5% CO2 at 37° C. for 16 hours.
After 16 hours of incubation, 200 μL of cells (1×10^5) treated with HPC or a control reagent are transferred to the anti-CD28 coated enzyme-labeled plates, and incubated under 5% CO2 at 37° C. for 48 hours. For the negative control groups, 200 μL of cells (1×10^5) are transferred to an enzyme-labeled plate coated with anti-CD28 or isotype IgG1. After 48 hours of incubation, the enzyme-labeled plates are centrifuged at […] for 10 minutes. Cell culture supernatants are collected and stored at −80° C. until use in analysis.
as §5, §6

[4] = 16 h HPC pre-incubation, 48 h stimulation, Luminex
[5] = PBMCs stimulated by PHA (10 μg/mL), 16 h HPC pre-incubation, 48 h stimulation, Luminex

CCCCCC(=O)O[C@]1(C(C)=O)CC[C@H]2[C@@H]3CCC4=CC(=O)CC[C@]4(C)[C@H]3CC[C@@]21C [HPC, hydroxyprogesterone caproate]
significantly inhibited: release of IFN-γ [1, 4] | release of IL-6 [1, 4] | release of IL-10 [1, 4] | release of IL-2 [2, 5] | release of IL-6 [2, 5] | release of IL-10 [2, 5] | release of TNF-α [2, 5] | release of IFN-γ [3, 4] | release of IL-6 [3, 4] | release of IL-10 [3, 4] | release of TNF-α [3, 4]
concentration dependent: inhibition effect on IL-6 and IL-10 release: concentration dependence [1] | inhibition of IL-2, IL-6, IL-10 and TNF-α release: concentration dependence ([2]; PBMCs stimulated by PHA) | inhibition effect on IL-10 and IFN-γ release: concentration dependence [3]
